Earlier results as cited in patent US20080044504A1, “Pomegranate Juice, Pomegranate Juice Powder and Process for Producing the Powder” (Marukin Bio, Inc., priority 2004, published 2008).
Like-named read-outs stand apart in the source and are kept apart here.

System: estrogen receptor

binding to the estrogen receptor (binding rate of DES defined as 100%) | binding to the estrogen receptor | Compound
0.04% | – | O=c1c(-c2ccc(O)cc2)coc2cc(O)ccc12 [daidzein]
– | 1.7% | O=c1c(-c2ccc(O)cc2)coc2cc(O)cc(O)c12 [genistein]
